# According to PMC9502403, “Saquayamycin B1 Suppresses Proliferation, Invasion, and Migration by Inhibiting PI3K/AKT Signaling Pathway in Human Colorectal Cancer Cells” (Marine Drugs, 2022):
# Tests used:
# SW620 cells [1] = assay: MTT cytotoxicity assay, SW620; format: cell-based; settings: Homo sapiens, SW-620, 48 h, mean ± SD
# Method: (§1) Human CRC cell lines SW480 (BeNa Culture Collection, Xinyang, China), SW620 (Procell Life Science & Technology Co., Ltd., Wuhan, China), and HT-29 (Zhong Qiao Xin Zhou Biotechnology Co., Ltd., Shanghai, China) were cultured in RPMI 1640 Medium (Livning Biotechnology Co., Ltd., Beijing, China), LoVo cells (Zhong Qiao Xin Zhou Biotechnology Co., Ltd., Shanghai, China) were cultured in DMEM/F12 (Livning Biotechnology Co., Ltd., Beijing, China), and normal human liver cell line QSG-7701 (Beyotime Institute of Biotechnology, Shanghai, China) was cultured in DMEM/high glucose (Livning Biotechnology Co., Ltd., Beijing, China) containing 10% fetal bovine serum (FBS) (Gibco Life Technologies, San Jose, CA, USA). The cells were cultured in a constant temperature incubator at 37 °C, 5% CO2.
# (§2) The cytotoxicity of Mor B, Saq B1, Saq B, and Lan N on CRC and the normal human liver cells was detected by MTT (3-(4,5-dimethylthiazol)-2,5-diphenyltetrazolium bromide) assay (Sigma-Aldrich Corp., St. Louis, MO, USA). Cells were evenly distributed in 96-well plates overnight and then treated with Mor B, Saq B1, Saq B, and Lan N at different concentrations for 48 h. The negative control group was treated with the same concentration of DMSO. After treatment, 10 μL of the 5 mg/mL MTT solution was added to each well in the incubator for 4 h. Then, the MTT solution was removed and 150 μL DMSO was added into each hole to dissolve the purple crystal. The absorbance of each well was read at 570 nm with a microplate reader, and the IC50 values were calculated using the software. Each sample was measured three times independently.
# QSG-7701 cells = assay: MTT cytotoxicity assay, QSG-7701 normal liver cells; format: cell-based; settings: QSG7701, 48 h, normal human liver cells, mean ± SD
# Method: as §1, §2
# LoVo cells = assay: MTT cytotoxicity assay, LoVo; format: cell-based; settings: Homo sapiens, 48 h, mean ± SD
# Method: as §1, §2
# HT-29 cells = assay: MTT cytotoxicity assay, HT-29; format: cell-based; settings: Homo sapiens, 48 h, mean ± SD
# Method: as §1, §2
# SW480 cells [2] = assay: MTT cytotoxicity assay, SW480; format: cell-based; settings: Homo sapiens, 48 h, mean ± SD
# Method: as §1, §2
# Bax/Bcl-2 = assay: Western blot of Bax and Bcl-2; format: cell-based, human; settings: SW480 and SW620 cells
# Method: (§3) Western blotting was used to reveal changes in the expression of specific proteins after Saq B1 treatment. The cells treated with varying doses of Saq B1 were lysed with RIPA buffer (Beyotime Biotech, Shanghai, China) to obtain total protein, which was quantified using a BCA kit. The proteins with different molecular weights were separated by SDS-PAGE electrophoresis. The protein was transferred to a PVDF membrane and sealed with 5% skim milk for 1 h. After washing with TBS-T buffer, the respective primary antibodies were added to the membrane and incubated at 4 °C overnight. Next, the PVDF membrane was washed with TBS-T buffer three times and incubated with antimouse IgG or antirabbit IgG secondary antibody (CST, Inc., Beverly, MA, USA) for 1 h at room temperature. Proteins on the membranes were visualized using the enhanced chemiluminescence detection kit (ECL®, Amersham Biosciences, Little Chalfont, UK).
# SW480 cells [3] = assay: Transwell migration and invasion assay; format: cell-based, human
# Method: The transwell assay is used to test the ability of cells to invade and metastasize. In the invasion assay, we placed transwell chambers in a 24-well plate, and cells were suspended in 200 μL serum-free medium at the density of 1 × 10^5 cells/mL. Then, cells were added to an upper chamber containing Matrigel, while 700 μL of the medium containing 20% FBS as a chemo-attractant was added to the lower chamber. The cells were treated with various doses of Saq B1 and incubated with 5% CO2 at 37 °C. Thereafter, all media were discarded, and the cells in the lower chamber were fixed in 4% paraformaldehyde for 20 min and placed in 0.5% crystal violet dye for 20 min. After washing the cells with PBS three times, five regions were selected randomly under the microscope, pictures were taken, and the number of transmembrane cells was counted. The migration assay followed the same procedure as the invasion assay but without Matrigel. Each sample was evaluated independently three times.
# SW480 cells [4] = assay: Colony formation assay; format: cell-based, human; settings: SW480, with increasing concentration, 14 days
# Text: The cell colony formation assay is an important technique for detecting cell proliferation, invasiveness, and drug sensitivity. After digestion of trypsin in the logarithmic growth phase, the cells were inoculated on 6-well plates at a density of 700 cells/well. The medium was refreshed every 3 days and treatment continued for 14 days. Finally, the colonies were fixed with 4% paraformaldehyde and stained with crystal violet. Colonies with >50 cells were counted and photographed.
# SW480 cells [5] = assay: Annexin V-FITC/PI flow cytometry of apoptosis, SW480; format: cell-based, human
# Text: (§4) Annexin V-FITC and Propidium Iodide (PI) apoptosis-detection kits were used to determine the specific proportion of apoptotic cells. Annexin V-FITC is used to detect phosphatidylserine, which moves from the inside of the membrane to the surface of the cell membrane during apoptosis, producing green fluorescence. Late apoptotic cells whose cell membrane integrity is destroyed can be stained with PI, producing red fluorescence.
# (§5) An Annexin V-FITC apoptosis detection kit was used to detect cell apoptosis by flow cytometry after staining. The cells were placed in 6-well plates and digested by trypsin (Solarbio, Beijing, China) after Saq B1 treatment. Then, the cells were washed with PBS and centrifuged for 5 min, and the supernatant was discarded. Annexin V-FITC binding buffer was added to gently suspend the cells. Annexin V-FITC and PI were successively added and slowly mixed. Apoptosis was immediately assessed by flow cytometry (Becton, Dickinson and Company, San Jose, CA, USA). Each sample was measured three times.
# SW480 cells [6] = assay: Wound-healing assay; format: cell-based, human; settings: SW480, with increasing dose, 48 h
# Method: To determine the migratory ability of cells in vitro, we adopted the cell scratch test. Cells were placed in a 6-well plate at a density of 5 × 10^4 cells per well. When the cells had adhered to 90% of each well, we made equal-width scratches at the same position in each hole with sterile micropipette tips. Each well was washed three times with PBS to remove suspended cells. The cells in the well were treated with different concentrations of Saq B1. The wound-healing rate (%) = (1 − (the width of the assay group/the width of the control group)) × 100% was calculated according to the width of the scratches in each group to evaluate the migratory ability of the cells. Each sample was measured three times.
# [7] = system: E-cadherin, N-cadherin, and vimentin; assay: Western blot of EMT markers; format: cell-based, human; settings: SW480 and SW620 cells, 0–0.3 μmol/L
# Method: as §3
# PI3K/AKT pathway = assay: Western blot of PI3K, AKT, p-AKT; format: cell-based, human; settings: SW480 and SW620 cells, 0.1 μM, 0.2 μM, and 0.3 μM
# Method: as §3
# SW620 cells [8] = assay: Annexin V-FITC/PI flow cytometry of apoptosis, SW620; format: cell-based, human
# Text: as §4, §5
# CRC cells = assay: MTT cytotoxicity assay, CRC cells (range over lines); format: cell-based; settings: Homo sapiens, range over SW480, SW620, LoVo, HT-29
# Method: as §1
# as §2, with “The negative control group was treated with the same concentration of DMSO. After treatment, 10 μL of the 5 mg/mL MTT solution was added to each well in the incubator for 4 h. Then, the MTT solution was removed and 150 μL DMSO was added into each hole to dissolve the purple crystal.” left out
smiles,measurement,setting,value
"COc1cccc2c1C(=O)c1c(O)c3c(c(O)c1C2=O)C[C@@](O)(C(=O)CO)C[C@@H]3O[C@H]1C[C@H](N)[C@H](O)[C@H](C)O1 [Doxorubicin, reference compound]",IC50,SW620 cells [1],1060 ± 110 nM
same,IC50,QSG-7701 cells,1330 ± 30 nM
same,IC50,LoVo cells,830 ± 120 nM
same,IC50,HT-29 cells,1020 ± 100 nM
same,IC50,SW480 cells [2],910 ± 80 nM
Cc1cc(O)c2c3c(cc(O)c2c1)C(=O)c1c(ccc([C@H]2C[C@H]4O[C@H]5CC(=O)[C@H](C)O[C@H]5O[C@@H]4[C@@H](C)O2)c1O)C3=O [Landomycin N],IC50,SW620 cells [1],> 20000 nM
same,IC50,QSG-7701 cells,> 20000 nM
same,IC50,LoVo cells,> 20000 nM
same,IC50,HT-29 cells,> 20000 nM
same,IC50,SW480 cells [2],> 20000 nM
C[C@@H]1O[C@H]2O[C@@H]3[C@@H](C)O[C@@H](c4ccc5c(c4O)C(=O)c4ccc6c(c4C5=O)C(=O)C[C@](C)(O)C6)C[C@H]3O[C@H]2CC1=O [Moromycin B],IC50,SW620 cells [1],340 ± 50 nM
same,IC50,QSG-7701 cells,1260 ± 150 nM
same,IC50,LoVo cells,780 ± 20 nM
same,IC50,HT-29 cells,820 ± 40 nM
same,IC50,SW480 cells [2],450 ± 60 nM
C[C@@H]1O[C@H]2O[C@@H]3[C@@H](C)O[C@@H](c4ccc5c(c4O)C(=O)C4=C(C5=O)[C@@]5(O)C(=O)C[C@](C)(O)C[C@@]5(O)C=C4)C[C@H]3O[C@H]2CC1=O [Saquayamycin B1],expression of Bax/Bcl-2,Bax/Bcl-2,increased
same,IC50,SW620 cells [1],260 ± 30 nM
same,IC50,QSG-7701 cells,1570 ± 120 nM
same,cellular migration and invasion,SW480 cells [3],dose-dependent inhibition
same,size and number of cell clones,SW480 cells [4],declined
same,apoptosis rate,"SW480 cells [5]; SW480, Saq B1 0.1 μM",24.31%
same,apoptosis rate,"SW480 cells [5]; SW480, Saq B1 0.2 μM",30.75%
same,apoptosis rate,"SW480 cells [5]; SW480, Saq B1 0.3 μM",40.12%
same,wound-healing rate of cells,SW480 cells [6],decreased gradually
same,expression of epithelial adhesion protein E-cadherin,[7],increased
same,expression of mesenchymal protein N-cadherin,[7],decreased
same,expression of mesenchymal protein vimentin,[7],decreased
same,IC50,LoVo cells,630 ± 70 nM
same,protein expression level of AKT,PI3K/AKT pathway,basically unchanged
same,protein expression level of PI3K,PI3K/AKT pathway,decreased
same,protein expression level of p-AKT,PI3K/AKT pathway,decreased
same,apoptosis rate,"SW620 cells [8]; SW620, Saq B1 0.1 μM",8.11%
same,apoptosis rate,"SW620 cells [8]; SW620, Saq B1 0.2 μM",12.67%
same,apoptosis rate,"SW620 cells [8]; SW620, Saq B1 0.3 μM",30.69%
same,IC50,HT-29 cells,840 ± 50 nM
same,IC50,CRC cells,180 to 840 nM
same,IC50,SW480 cells [2],180 ± 10 nM
C[C@@H]1O[C@@H](O[C@H]2CC[C@H](O[C@@]3(C)CC(=O)[C@]4(O)C5=C(C=C[C@]4(O)C3)C(=O)c3c(ccc([C@H]4C[C@H]6O[C@H]7CC(=O)[C@H](C)O[C@H]7O[C@@H]6[C@@H](C)O4)c3O)C5=O)O[C@H]2C)C=CC1=O [Saquayamycin B],IC50,SW620 cells [1],420 ± 20 nM
same,IC50,QSG-7701 cells,1380 ± 140 nM
same,IC50,LoVo cells,750 ± 30 nM
same,IC50,HT-29 cells,890 ± 20 nM
same,IC50,SW480 cells [2],320 ± 30 nM
